Results as given in patent US20120269802A1, “Treatment And Prognosis With Thalidomide In Multiple Myeloma Based on Karyotyping And Gene Expression Profiling” (Board Of Trustees Of The University Of Arkansas, priority 2009, published 2012).

Test system: multiple myeloma
Assay: Total Therapy 2 (TT2) randomized trial, control arm vs thalidomide arm: survival (Kaplan-Meier, Cox regression)
Format: in vivo, patients
Details: for Overall Survival HR (95% CI), randomization to thalidomide: all patients with GEP data
Text: To clarify the underlying mechanism, survival was examined in the 351 patients for whom gene expression profiling and cytogenetic data were available. […] Survival in the context of cytogenetic abnormalities involving chromosomal loci (CA1, CA13) was also examined. Statistical methods including Cox regression modeling were employed to define variables independently impacting outcomes.
Of all 668 patients accrued to TT2, the 351 with gene expression profiling data available on CD138-purified plasma cells prior to initiation of therapy are the subjects of this report. […] The sole clinical outcome focus in this example is the overall survival measured from initiation of therapy.
Kaplan-Meier methods were used to generate survival distribution graphs and comparisons were made using the log-rank test. Categorical comparisons were made using the chi-squared test. Running log-rank tests were used to determine optimal cut points for IL6R expression levels. Multivariate analyses applied stepwise selection and Cox proportional hazard regression modeling.
In each of Tables 2-3: HR—Hazard Ratio, 95% Cl-95% Confidence Interval, P-value from Wald Chi-Square Test in Cox Regression NS2-Multivariate results not statistically significant at 0.05 level. All univariate p-values reported regardless of significance. Multivariate model uses stepwise selection with entry level 0.1 and variable remains if meets the 0.05 level. A multivariate p-value greater than 0.05 indicates variable forced into model with significant variables chosen using stepwise selection. Variables considered for the multivariate model were: Cytogenetic abnormalities, CA1, CA13, CA 1+13, Albumin <3.5 g/dL, B2M >5.5 mg/L, Creatinine ≧2 mg/dL, Hb <10 g/dL, LDH ≧190 U/L, GEP high-risk, GEP TP53 deletion, GEP IL6R expression ≧2900, GEP CKS1B Q4, Randomization to thalidomide, IL6R and CA 1+13 (interaction term).

For O=C1CCC(N2C(=O)c3ccccc3C2=O)C(=O)N1 (stereo not shown) [thalidomide], the 7-year survival estimate (GEP-defined low-risk myeloma, subset displaying cytogenetic abnormalities, thalidomide arm vs 30% on control arm, p=0.004 (FIG. 1B)) was 67%, the “outcome vs control arm” value (all patients with GEP-defined low-risk myeloma, p=0.13) was “only trending toward better outcomes” and the 5-year survival estimate (low-risk patients, CA1/13 subgroup (CA without both CA1 and CA13), addition of thalidomide vs 59% control, p<0.001 (FIG. 1C)) was 95%. For the same compound, the “survival outcomes on both treatment arms” value (low-risk patients, subgroups with no cytogenetic abnormalities and with CA1+13 (FIG. 1C)) was “similar”, the “Overall Survival HR (95% CI), randomization to thalidomide” value (multivariate analysis, n/N 168/337, P 0.037) was 0.69 (0.49, 0.98) and the “OS from Enrollment HR (95% CI), CA with thalidomide randomization (interaction term)” value (multivariate analysis, patients with GEP-defined low-risk, n/N 33/304, P 0.003) was 0.27 (0.11, 0.64). For the same compound, the “OS from Enrollment HR (95% CI), randomization to thalidomide” value (multivariate analysis, patients with GEP-defined low-risk, n/N 149/304, P 0.766) was 1.08 (0.65, 1.79), the 7-year survival (patients exhibiting cytogenetic abnormalities (CA), randomized to thalidomide in TT2, vs 25% on control arm, p=0.015 (FIG. 1A)) was 54% and the “Overall Survival HR (95% CI), randomization to thalidomide” value (univariate analysis, n/N 175/351, P 0.158) was 0.78 (0.56, 1.10). The “OS from Enrollment HR (95% CI), randomization to thalidomide” value (univariate analysis, patients with GEP-defined low-risk, n/N 149/305, P 0.140) was 0.74 (0.50, 1.10).
